Results on two compounds are retold here after patent US20250339409A1, “USES OF PAN BET INHIBITORS” (VYNE THERAPEUTICS INC., priority 2021, published 2025).

Experiment [1] has as its system IL4, IL13, IL31, CCL17, CCL26, CCL2 gene expression in Th2 stimulated human skin. Nature of the experiment: Th2 stimulated human skin explants, RT-qPCR of biomarkers. The format is cell-based. Conditions: for inhibition at 0.01 µM / inhibition at 0.04 µM / inhibition at 0.16 µM / inhibition at 0.63 µM / inhibition at 2.5 µM / inhibition at 10 µM: Homo sapiens; for inhibition at 2.5 µM: 2.50 μM. The source says:
(§1) Human skin biopsy tissue was stimulated to induce a Th17 immuno-phenotype using a method derived from Feghali-Bostwick et al. Induction of a Th17 phenotype in human skin—a mimic of dermal inflammatory diseases, Methods and Protocols, 2, 45 (2019). The pharmacodynamic assay described therein involves a similar paradigm to elicit a Th2 response and is used to evaluate the therapeutic potential of the active compounds (e.g., BETi1; and
(§2) Freshly excised healthy human skin tissue from abdominoplasties is defatted, cleaned and sectioned into 7 mm biopsies. The biopsies are placed in Transwell® inserts with the epidermis apical and exposed to air and the dermis submerged in media in the basal chamber. The biopsies are pre-treated overnight at 37° C., 5% CO2 with different compounds and controls added to the media in the basal chamber.
(§3) The next day, contents of the basal chamber is replaced with fresh media containing the test compound (listed below) and a stimulation cocktail for either Th2 inflammation (proprietary of service provider cocktail) or Th17 inflammation (mix of antibodies against CD3, CD28, IL-4, IFNγ and recombinant IL-1β, IL-6, IL-21, TGF-β). The biopsies are incubated at 37° C., 5% CO2 for a further 24 hrs.
(§4) A list of all the treatments is provided below: • 1. Untreated control (for both stimulations) • 2. Th2 stimulated control • 3. Th17 stimulated control • 4. Th2+BETia at 0.01, 0.04, 0.16, 0.63, 2.50, and 10 μM • 5. Th2+BETi1 at 0.01, 0.04, 0.16, 0.63, 2.50, and 10 μM • 6. Th2+Ruxolitinib at 0.01, 0.04, 0.16, 0.63, 2.50, and 10 μM • 7. Th2+betamethasone valerate 210 μM (equivalent to 0.01%) • 8. Th17+BETia at 10 μM • 9. Th17+BETi1 at 10 μM • 10. Th17+Ruxolitinib at 10 μM • 11. Th17+betamethasone valerate 210 μM (equivalent to 0.01%)
(§5) After harvesting, the biopsies are cut in half, and one half is homogenized and used for RNA extraction by standard methods and inflammatory pathways is assessed by RT-qPCR. The ability of BETi1 or BETia to inhibit the activity of up to six biomarkers per stimulation is reported as percent activity calculated to stimulated control and fold change in gene expression calculated to untreated control with respect to Th2 (IL4, IL13, IL31, CCL17, CCL26, CCL2) and Th17 (CXCL10, IL17α, IL22, IL36γ, CCL20, SerpinB4). Statistical analysis is performed on data sets from all 3 donors combined and compares the percent inhibition of each biomarker by each treatment calculated to its respective vehicle.
(§6) qPCR values were calculated using the relative quantification approach outlined by Livak, et al (2001) (Section 9, Reference 2). The Ct values (threshold cycle) defined as the fractional cycle number at which the amount of amplified target reaches a fixed threshold, were normalised to the Ct value of an internal biomarker or ‘housekeeping gene’ (GAPDH). The higher limit of detection was set at a Ct value of 40, and any target having not reached Ct by 40 cycles was set to this value. The delta Ct values (dt(Ct)) refers to the Ct of the gene of interest minus the Ct of the internal biomarker. The ddt(Ct) is the dt(Ct) value of the gene minus the average dt(Ct) value of the untreated samples. The ddt(Ct) is converted to power by the equation; =power(2,dt(Ct)). Fold change was calculated as ratio of the power of the gene of interest divided by the average power of the untreated samples. This normalizes the untreated samplers to a value of 1. For the comparison of multiple skin donors, the stimulated samples were normalized to 100% maximum activity (such to normalize variability between different skin donors). Percent activity was calculated as the percent increase or decrease in stimulation compared to the stimulated samples set at 100% maximum activity. Percent change was calculated as: Inhibition=(100−(avg % activity/stimulated)*100). Statistical analysis was performed using One-way ANOVA with Dunnett's Multiple Comparisons (non parametric). […]

In experiment [2] the test system is CXCL10, IL17α, IL22, IL36γ, CCL20, SerpinB4 gene expression in Th17 stimulated human skin. Description: Th17 stimulated human skin explants, RT-qPCR of biomarkers. Type of experiment: cell-based. The note with it: calculated to Th17 stimulated control, three skin donors; for inhibition at 10 µM: Homo sapiens.
Excerpt: as §1, §2, §3, §4, §5, §6

The mark [3] stands for this setting: calculated to Th2 stimulated control, read-out: % Inhibition CCL17.
Where [4] appears, read: calculated to Th2 stimulated control, read-out: % Inhibition CCL26.
The mark [5] stands for this setting: calculated to Th2 stimulated control, read-out: % Inhibition IL31.
The mark [6] stands for this setting: calculated to Th2 stimulated control, read-out: % inhibition CCL2.
Where [7] appears, read: calculated to Th2 stimulated control, read-out: % inhibition IL4.
The mark [8] stands for this setting: calculated to Th2 stimulated control, read-out: % inhibition IL13.
The mark [9] stands for this setting: 210 μM, calculated to Th2 stimulated control.

Where two headings read alike, the source gives them in different places. A value given as a limit tells only on which side of the number the result lay.

Consider `N#CC[C@H](C1CCCC1)n1cc(-c2ncnc3[nH]ccc23)cn1` [Ruxolitinib, reference compound], for which the inhibition at 0.01 µM in experiment [1] (setting [3]) was 23.2%; in experiment [1] (setting [4]), 14%; in experiment [1] (setting [5]) it was below 0%; in experiment [1] (setting [6]), below 0%; in experiment [1] (setting [7]), below 0%; in experiment [1] (setting [8]), 2.3%. The inhibition at 0.04 µM was 47.7% in experiment [1] (setting [3]), 35.3% in experiment [1] (setting [4]), below 0% in experiment [1] (setting [6]) and 41.9% in experiment [1] (setting [7]). Moreover, the inhibition at 0.16 µM in experiment [1] (setting [5]) is 57.9%; in experiment [1] (setting [6]) it was below 0%; in experiment [1] (setting [8]), 66.3%. Also, the inhibition at 0.63 µM was 34% in experiment [1] (setting [3]); 88.3% in experiment [1] (setting [4]); 55.9% in experiment [1] (setting [5]); below 0% in experiment [1] (setting [6]); 53.8% in experiment [1] (setting [7]); 48.8% in experiment [1] (setting [8]). Moreover, the inhibition at 2.5 µM is below 0% in experiment [1] (setting [5]), 33% in experiment [1] (setting [6]), 20.5% in experiment [1] (setting [7]) and 18.5% in experiment [1] (setting [8]). Further, the inhibition at 10 µM in experiment [1] (10 μM, calculated to Th2 stimulated control, read-out: % Inhibition CCL17) is 89.9%; in experiment [1] (10 μM, calculated to Th2 stimulated control, read-out: % Inhibition CCL26), 98.5%; in experiment [1] (10 μM, calculated to Th2 stimulated control, read-out: % Inhibition IL31), 29.9%; in experiment [1] (10 μM, calculated to Th2 stimulated control, read-out: % inhibition CCL2), around 57%; in experiment [1] (10 μM, calculated to Th2 stimulated control, read-out: % inhibition IL4), 48.5%; in experiment [1] (10 μM, calculated to Th2 stimulated control, read-out: % inhibition IL13), around 54%. Also, the inhibition at 10 µM was below 0% in experiment [2] (10 μM, read-out: % inhibition CCL20); around 99% in experiment [2] (10 μM, read-out: % inhibition CXCL10); 2.8% in experiment [2] (10 μM, read-out: % inhibition IL17α); around 99% in experiment [2] (10 μM, read-out: % inhibition IL22); 92% in experiment [2] (10 μM, read-out: % inhibition Serpinβ4). In experiment [1] (Th2-mediated stimulation, 10 μM), the “highest percent inhibition of CCL17 gene expression” value is listed as “ca. 90%”.
Regarding `CCCCC(=O)O[C@]1(C(=O)CO)[C@@H](C)C[C@H]2[C@@H]3CCC4=CC(=O)C=C[C@]4(C)[C@@]3(F)[C@@H](O)C[C@@]21C` [Betamethasone, betamethasone valerate, reference compound], in experiment [1] (10 μM, calculated to Th2 stimulated control), the “% Inhibition IL31” value was 87.4%. Moreover, in experiment [1] (setting [9]), the “% Inhibition CCL26” value was 64.4% and the “% inhibition IL13” value is on record as 97.8%. Further, the “% inhibition CCL20” value in experiment [2] (10 μM) is on record as “N/I (N/I indicates no inhibition.)”. Also, in experiment [2] (210 μM), the “% inhibition IL17α” value is listed as 73.1% and the “% inhibition IL36γ” value was 77.7%.
